From the NIST ThermoML archive (doi:10.1021/je700236c)
“And” between values parts separate entries of the source, which are not always exact repeats. Equal values may be shown once. Numbers after ± are expanded uncertainties.

Conditions: Gas, Buoyancy - hydrostatic balance with magnetic suspension - two sinkers

CC(F)(F)F [1,1,1-trifluoroethane]
Conditions | mass density
283.15 K, 203.6 kPa | 7.588 ± 0.011 kg/m3 and 7.589 ± 0.011 kg/m3
283.15 K, 399.9 kPa | 15.605 ± 0.014 kg/m3
283.15 K, 505.8 kPa | 20.278 ± 0.019 kg/m3 and 20.282 ± 0.019 kg/m3
283.15 K, 605 kPa | 24.935 ± 0.023 kg/m3 and 24.932 ± 0.023 kg/m3
283.15 K, 651.6 kPa | 27.227 ± 0.026 kg/m3
283.15 K, 651.7 kPa | 27.238 ± 0.026 kg/m3
283.15 K, 700.8 kPa | 29.729 ± 0.028 kg/m3 and 29.728 ± 0.028 kg/m3
283.15 K, 750.8 kPa | 32.363 ± 0.031 kg/m3 and 32.361 ± 0.031 kg/m3
283.15 K, 781.5 kPa | 34.03 ± 0.033 kg/m3
283.15 K, 781.6 kPa | 34.039 ± 0.033 kg/m3
283.15 K, 801.7 kPa | 35.15 ± 0.034 kg/m3
283.15 K, 801.8 kPa | 35.164 ± 0.034 kg/m3
283.15 K, 820.2 kPa | 36.196 ± 0.035 kg/m3
283.15 K, 820.3 kPa | 36.205 ± 0.035 kg/m3
293.15 K, 201.7 kPa | 7.219 ± 0.011 kg/m3
293.15 K, 201.8 kPa | 7.222 ± 0.011 kg/m3
293.15 K, 400.3 kPa | 14.916 ± 0.014 kg/m3 and 14.915 ± 0.014 kg/m3
293.15 K, 599.3 kPa | 23.356 ± 0.021 kg/m3 and 23.36 ± 0.021 kg/m3
293.15 K, 701.3 kPa | 28.031 ± 0.026 kg/m3 and 28.028 ± 0.026 kg/m3
293.15 K, 798.2 kPa | 32.729 ± 0.031 kg/m3 and 32.732 ± 0.031 kg/m3
293.15 K, 898.7 kPa | 37.925 ± 0.035 kg/m3 and 37.921 ± 0.035 kg/m3
293.15 K, 951 kPa | 40.774 ± 0.041 kg/m3
293.15 K, 999.6 kPa | 43.532 ± 0.044 kg/m3
293.15 K, 1030.9 kPa | 45.365 ± 0.046 kg/m3 and 45.355 ± 0.046 kg/m3
293.15 K, 1048.7 kPa | 46.429 ± 0.048 kg/m3
293.15 K, 1048.8 kPa | 46.429 ± 0.048 kg/m3
293.15 K, 1071 kPa | 47.788 ± 0.05 kg/m3
293.15 K, 1071.1 kPa | 47.784 ± 0.05 kg/m3
293.15 K, 1089 kPa | 48.896 ± 0.051 kg/m3 and 48.901 ± 0.051 kg/m3
303.15 K, 200 kPa | 6.895 ± 0.011 kg/m3 and 6.903 ± 0.011 kg/m3
303.15 K, 400.9 kPa | 14.305 ± 0.014 kg/m3 and 14.313 ± 0.014 kg/m3
303.15 K, 600.3 kPa | 22.265 ± 0.02 kg/m3
303.15 K, 600.4 kPa | 22.265 ± 0.02 kg/m3
303.15 K, 801.6 kPa | 31.034 ± 0.029 kg/m3 and 31.031 ± 0.029 kg/m3
303.15 K, 1001 kPa | 40.662 ± 0.039 kg/m3 and 40.666 ± 0.039 kg/m3
303.15 K, 1099.9 kPa | 45.879 ± 0.047 kg/m3 and 45.88 ± 0.047 kg/m3
303.15 K, 1197.3 kPa | 51.364 ± 0.053 kg/m3 and 51.363 ± 0.053 kg/m3
303.15 K, 1249.2 kPa | 54.458 ± 0.057 kg/m3
303.15 K, 1299.5 kPa | 57.578 ± 0.061 kg/m3 and 57.581 ± 0.061 kg/m3
303.15 K, 1340.6 kPa | 60.231 ± 0.067 kg/m3 and 60.229 ± 0.067 kg/m3
303.15 K, 1369.8 kPa | 62.181 ± 0.071 kg/m3 and 62.183 ± 0.071 kg/m3
303.15 K, 1401.5 kPa | 64.363 ± 0.073 kg/m3 and 64.364 ± 0.073 kg/m3
303.15 K, 1423.7 kPa | 65.925 ± 0.075 kg/m3
303.15 K, 1423.9 kPa | 65.952 ± 0.076 kg/m3
313.15 K, 201.5 kPa | 6.696 ± 0.011 kg/m3
313.15 K, 201.8 kPa | 6.718 ± 0.011 kg/m3
313.15 K, 205.1 kPa | 6.831 ± 0.011 kg/m3 and 6.828 ± 0.011 kg/m3
313.15 K, 206.2 kPa | 6.869 ± 0.011 kg/m3
313.15 K, 401.6 kPa | 13.776 ± 0.013 kg/m3
313.15 K, 401.7 kPa | 13.775 ± 0.013 kg/m3
313.15 K, 600.3 kPa | 21.275 ± 0.019 kg/m3 and 21.282 ± 0.019 kg/m3
313.15 K, 800.3 kPa | 29.41 ± 0.027 kg/m3 and 29.413 ± 0.027 kg/m3
313.15 K, 999.1 kPa | 38.197 ± 0.036 kg/m3 and 38.204 ± 0.036 kg/m3
313.15 K, 1200.3 kPa | 47.988 ± 0.048 kg/m3 and 48.002 ± 0.048 kg/m3
313.15 K, 1400.2 kPa | 58.893 ± 0.063 kg/m3 and 58.909 ± 0.063 kg/m3
313.15 K, 1500.8 kPa | 64.963 ± 0.072 kg/m3 and 64.977 ± 0.072 kg/m3
313.15 K, 1540.9 kPa | 67.443 ± 0.078 kg/m3 and 67.442 ± 0.078 kg/m3
313.15 K, 1598 kPa | 71.29 ± 0.083 kg/m3
313.15 K, 1598.1 kPa | 71.312 ± 0.083 kg/m3
313.15 K, 1648.3 kPa | 74.652 ± 0.088 kg/m3 and 74.647 ± 0.088 kg/m3
313.15 K, 1701.3 kPa | 78.498 ± 0.097 kg/m3 and 78.51 ± 0.097 kg/m3
313.15 K, 1740.8 kPa | 81.517 ± 0.1 kg/m3 and 81.508 ± 0.1 kg/m3
313.15 K, 1771.1 kPa | 83.916 ± 0.11 kg/m3 and 83.908 ± 0.11 kg/m3
313.15 K, 1793.2 kPa | 85.73 ± 0.12 kg/m3
313.15 K, 1794.4 kPa | 85.811 ± 0.11 kg/m3

FCF [difluoromethane]
Conditions | mass density
313.15 K, 201.8 kPa | 4.12 ± 0.011 kg/m3
313.15 K, 201.9 kPa | 4.121 ± 0.011 kg/m3
313.15 K, 490.8 kPa | 10.336 ± 0.012 kg/m3 and 10.342 ± 0.012 kg/m3
313.15 K, 791 kPa | 17.275 ± 0.015 kg/m3 and 17.277 ± 0.015 kg/m3
313.15 K, 996.6 kPa | 22.349 ± 0.021 kg/m3 and 22.355 ± 0.021 kg/m3
313.15 K, 1203.3 kPa | 27.759 ± 0.024 kg/m3 and 27.77 ± 0.024 kg/m3
313.15 K, 1396.5 kPa | 33.148 ± 0.033 kg/m3 and 33.159 ± 0.033 kg/m3
313.15 K, 1602.9 kPa | 39.322 ± 0.035 kg/m3 and 39.331 ± 0.035 kg/m3
313.15 K, 1801.8 kPa | 45.76 ± 0.041 kg/m3
313.15 K, 1801.9 kPa | 45.748 ± 0.041 kg/m3
313.15 K, 1998.1 kPa | 52.687 ± 0.047 kg/m3 and 52.676 ± 0.047 kg/m3
313.15 K, 2103.6 kPa | 56.702 ± 0.051 kg/m3 and 56.692 ± 0.051 kg/m3
313.15 K, 2201.5 kPa | 60.637 ± 0.072 kg/m3 and 60.629 ± 0.072 kg/m3
313.15 K, 2251 kPa | 62.72 ± 0.056 kg/m3 and 62.711 ± 0.056 kg/m3
313.15 K, 2298.1 kPa | 64.762 ± 0.058 kg/m3 and 64.748 ± 0.058 kg/m3
313.15 K, 2355.7 kPa | 67.348 ± 0.061 kg/m3
313.15 K, 2355.8 kPa | 67.343 ± 0.061 kg/m3
313.15 K, 2402.7 kPa | 69.541 ± 0.09 kg/m3
313.15 K, 2403 kPa | 69.545 ± 0.09 kg/m3
313.15 K, 2435 kPa | 71.084 ± 0.064 kg/m3
313.15 K, 2435.1 kPa | 71.095 ± 0.064 kg/m3
313.15 K, 2450.5 kPa | 71.838 ± 0.065 kg/m3
313.15 K, 2450.6 kPa | 71.855 ± 0.065 kg/m3
313.15 K, 2472 kPa | 72.903 ± 0.066 kg/m3 and 72.918 ± 0.066 kg/m3
323.15 K, 207.9 kPa | 4.101 ± 0.011 kg/m3 and 4.103 ± 0.011 kg/m3
323.15 K, 499.2 kPa | 10.125 ± 0.012 kg/m3 and 10.143 ± 0.012 kg/m3 and 10.132 ± 0.012 kg/m3
323.15 K, 801.1 kPa | 16.793 ± 0.015 kg/m3
323.15 K, 801.2 kPa | 16.794 ± 0.015 kg/m3
323.15 K, 998.3 kPa | 21.387 ± 0.019 kg/m3 and 21.393 ± 0.019 kg/m3
323.15 K, 1095.2 kPa | 23.732 ± 0.024 kg/m3
323.15 K, 1200.3 kPa | 26.337 ± 0.028 kg/m3
323.15 K, 1200.4 kPa | 26.341 ± 0.028 kg/m3
323.15 K, 1397.4 kPa | 31.424 ± 0.03 kg/m3 and 31.416 ± 0.03 kg/m3
323.15 K, 1590.6 kPa | 36.664 ± 0.046 kg/m3 and 36.67 ± 0.046 kg/m3
323.15 K, 1797.2 kPa | 42.644 ± 0.061 kg/m3 and 42.658 ± 0.061 kg/m3
323.15 K, 2004.9 kPa | 49.091 ± 0.079 kg/m3 and 49.105 ± 0.079 kg/m3
323.15 K, 2200.6 kPa | 55.637 ± 0.064 kg/m3 and 55.653 ± 0.064 kg/m3
323.15 K, 2402.3 kPa | 62.99 ± 0.077 kg/m3 and 62.978 ± 0.077 kg/m3
323.15 K, 2596.1 kPa | 70.738 ± 0.17 kg/m3 and 70.733 ± 0.17 kg/m3
323.15 K, 2699 kPa | 75.19 ± 0.21 kg/m3
323.15 K, 2699.1 kPa | 75.207 ± 0.21 kg/m3
323.15 K, 2799 kPa | 79.805 ± 0.29 kg/m3 and 79.816 ± 0.26 kg/m3
323.15 K, 2802.9 kPa | 80.005 ± 0.29 kg/m3 and 80.017 ± 0.33 kg/m3
323.15 K, 2900.6 kPa | 84.82 ± 0.28 kg/m3 and 84.839 ± 0.28 kg/m3
323.15 K, 2901.2 kPa | 84.882 ± 0.28 kg/m3 and 84.872 ± 0.28 kg/m3
323.15 K, 2947 kPa | 87.258 ± 0.31 kg/m3 and 87.244 ± 0.31 kg/m3
323.15 K, 2960.3 kPa | 87.971 ± 0.33 kg/m3 and 87.99 ± 0.33 kg/m3
323.15 K, 3002.2 kPa | 90.24 ± 0.41 kg/m3
323.15 K, 3002.3 kPa | 90.261 ± 0.38 kg/m3
323.15 K, 3010.2 kPa | 90.716 ± 0.38 kg/m3 and 90.73 ± 0.38 kg/m3
323.15 K, 3041.1 kPa | 92.478 ± 0.39 kg/m3
323.15 K, 3041.2 kPa | 92.495 ± 0.39 kg/m3
323.15 K, 3074.6 kPa | 94.445 ± 0.4 kg/m3 and 94.453 ± 0.4 kg/m3
323.15 K, 3099.5 kPa | 95.942 ± 0.43 kg/m3 and 95.952 ± 0.43 kg/m3
323.15 K, 3125.5 kPa | 97.558 ± 0.44 kg/m3
323.15 K, 3125.6 kPa | 97.549 ± 0.44 kg/m3
323.15 K, 3134.2 kPa | 98.084 ± 0.42 kg/m3
